Entries after “also recorded” stand apart in the source; their conditions may differ.
Assays:
[1] = tested on: 6-Hz seizures; test: acute mouse 6-Hz model (FIG. 9); assay type: in vivo, NMRI mice
Experimental: FIG. 9 includes two graphs that summarize the effects of racemic fenfluramine (abbreviated herein as “FA,” “FFA” or “FEN”) treatment in 6-Hz mice, as described in Example 2. FIG. 9A is a bar graph showing the percentage of animals protected for mice treated with vehicle, with […], and with 5 mg/kg FA. […] Protection being defined as the absence of a seizure within the expected time frame (i.e. below the minimum seizure duration in VHC treated mice).
Rapid screening of possible anticonvulsants can be performed by using acute (instead of chronic) animal models of drug-resistant seizures. […] In addition to the protocol using 44 mA pulses, more “lenient” versions of the model using 22 mA or 32 mA currents are sometimes employed.

[2] = tested on: Generalized tonic-clonic seizures; test: acute maximal electroshock (MES) test; assay type: in vivo, male CF-1 mice
Experimental: (§1) The antiseizure effects of racemic fenfluramine were assessed in three mouse models of acute and chronic seizures in naïve male CF-1 mice (Envigo (Indianapolis, Ind., USA); 18-35 g): 1) the acute maximal electroshock (MES) test; 2) the acute 44 mA 6 Hz test; and 3) the chronic corneal kindled mouse (CKM) model.
(§2) Methods: Testing progressed in three phases: identification, time course, and dose response. In the identification phase, mice were administered FFA (3, 10, 30 mg/kg, ip), vehicle, or retigabine (positive control, 20 or 50 mg/kg, ip) 0.5 or 2 hr before testing (n=4/group). […] Dose-dependent anticonvulsant activity of FFA was assessed by testing between 0.25 and 120 mg/kg (n=8/dose). The effect of FFA on mild motor impairment (MMI) in the fixed-speed rotarod (FSR) was assessed prior to the MES, 44 mA 6 Hz, and CKM tests.

[3] = tested on: secondarily generalized focal seizures; test: acute 44 mA 6 Hz test; assay type: in vivo, male CF-1 mice
Experimental: as §1, §2

[4] = tested on: corneal kindled mouse; test: chronic corneal kindled mouse (CKM) model; assay type: in vivo, male CF-1 mice
Experimental: as §1, §2

[5] = fixed-speed rotarod, minimal motor impairment (MMI); assay type: in vivo, male CF-1 mice
Experimental: as §2

[6] = tested on: dizocilpine-treated mice; test: spontaneous alternation in the Y-maze, dizocilpine-induced amnesia model; assay type: in vivo, Male Swiss OF-1 mice
[7] = tested on: dizocilpine-treated mice; test: step-through passive avoidance, dizocilpine-induced amnesia model; assay type: in vivo, Male Swiss OF-1 mice
[8] = tested on: dizocilpine-treated mice; test: dizocilpine-induced learning deficits, statements covering both tests (Y-maze and passive avoidance); assay type: in vivo, Male Swiss OF-1 mice; conditions: mouse, in vivo
Experimental: Experiments were conducted to determine the dose-response effects of fenfluramine (FEN) and norfenfluramine (NOR), racemate and (+)- and (−)-isomers, in an in vivo mouse model; the dizocilpine-induced amnesia model (described below) is used to test responses to drugs acting at the sigma-1 receptor (S1R) (Maurice et al., 1994a,b; Maurice, et al., 1998, Neuroscience 83:413-428).
The drugs were administered intraperitoneally (“ip” or “IP”) with dizocilpine (0.15 mg/kg) and tested in the spontaneous alternation test on day 1 and in the passive avoidance test on days 2-3.
The apparatus consisted of a 2-compartment box, with one illuminated with white polyvinylchloride (PVC) walls and a transparent cover (15×20×15 cm high), one with black polyvinylchloride walls and cover (15×20×15 cm high), and a grid floor. A guillotine door separated each compartment. A 60 W lamp was positioned 40 cm above the apparatus lit the white compartment during the experimental period. Scrambled foot shocks (0.3 mA for 3 s) were delivered to the grid floor using a shock generator scrambler (Lafayette Instruments, Lafayette, Mass., USA). The guillotine door was initially closed during the training session. Each mouse was placed into the white compartment. After 5 s, the door was raised. When the mouse entered the darkened compartment and placed all its paws on the grid floor, the door was gently closed and the 3-scrambled foot shock was delivered for 3 s. The step-through latency, i.e., the latency spent to enter the dark compartment, and the level of sensitivity to the shock were recorded. The latter was evaluated as: 0=no sign; 1=flinching reactions; 2=flinching and vocalization reactions. The retention test was carried out 24 h after training. Each mouse was placed again into the white compartment. After 5 s, the door was raised. The step-through latency was recorded up to 300 s. Animals entered the darkened compartment or were gently pushed into it and the escape latency, i.e., the time spent to return into the white compartment, was also measured up to 300 s. Results were expressed as median and interquartile (25%-75%) range.
The Y-maze is made of grey PVC. Each arm is 40 cm long, 13 cm high, 3 cm wide at the bottom, 10 cm wide at the top, and converged at an equal angle. Each mouse was placed at the end of one arm and allowed to move freely through the maze during an 8-min session. The series of arm entries, including possible returns into the same arm, were checked visually. An alternation was defined as entries into all three arms on consecutive occasions. The number of maximum alternations was therefore the total number of arm entries minus two and the percentage of alternation was calculated as: actual alternations/maximum alternations)×100. Parameters included the percentage of alternation (memory index) and total number of arm entries (exploration index).

[9] = tested on: homozygous scn1Lab−/− mutants; test: zebrafish locomotor assay (total distance in large movements, lardist); assay type: in vivo, zebrafish (Danio rerio)
Text: (Baraban et al, 2013). Additional phenotypes of these mutants include: abnormal optokinetic response (OKR; 5 dpf); darkened pigmentation; death by 14 dpf; spontaneous seizure-like activity; abnormal (forebrain electrographic activity (3-7 dpf); seizure activity; lower levels of serotonin in scn1lab^−/− head homogenates at 7 dpf; zebrafish express orthologs of human serotonin (5HT) receptor subtypes at 5 dpf; nighttime hyperactivity (5 dpf); in open field-increased thigmotaxis. decreased movement (at 5 dpf); no differences in GABAergic neurons compared to wild type (5 dpf); 5-HT2a (hitr2aa/b) and S-HT2c; (htr2c11) orthologs expressed in larval heads in wild-type and scn1lab−/− mutants and in adult wild-type brains.
To assay the locomotor activity of homozygous scn1Lab−/− mutants and control WT scn1Lab+/+, zebrafish larvae were placed one larva per well in a 96-well plate in 100 μL of embryo medium from 4 to 8 days post-fertilization (dpf). Each day the larvae are tracked in an automated tracking device (ZebraBox™ apparatus; Viewpoint, Lyon, France) for 10 min after 30 min habituation (100-second integration interval). All recordings were performed at the same time during daytime period. The total distance in large movements was recorded and quantified using ZebraLab™ software (Viewpoint, Lyon, France). Data was pooled together from at least three independent experiments with at least 24 larvae per condition.
Scn1Lab^−/− mutants and WT scn1Lab+/+ larvae are arrayed in the same plate and treated at 6 days post fertilization (dpf) with the test compounds (25 μM), or VHC in individual wells of a 96-well plate. After incubation at 28° C. on a 14/10 hour light/dark cycle and 30-min chamber habituation 6 and 7 dpf larvae are tracked for locomotor activity for 10 min (100-second integration interval) under dark conditions. An incubation time of 1.5 hours is further referred to as short treatment (6 dpf). Furthermore, these larvae are analyzed after more than 22 hours incubation (7 dpf), i.e. long treatment. The total locomotor activity is quantified using the parameter lardist and plotted in cm. Data for each compound is pooled together from multiple independent experiments with at least 9 larvae per treatment condition.

[10] = tested on: homozygous scn1Lab−/− mutants; test: epileptiform activity, open-field recordings in larval forebrain (LFP assay); assay type: in vivo, zebrafish (Danio rerio)
[11] = tested on: WT scn1Lab+/+ zebrafish larvae; test: maximal tolerated concentration (MTC); assay type: in vivo, zebrafish (Danio rerio); conditions: no signs of toxicity in 12 out of 12 larvae within 48 hours of exposure
Experimental: To evaluate the maximal tolerated concentration (MTC) of each compound, 6 dpf-old WT scn1Lab+^+/+ zebrafish larvae were incubated in a 96-well plate (tissue culture plate, flat bottom, FALCON®, USA) with different concentrations of compound or VHC at 28° C. on a 14/10 hour light/dark cycle under standard aquaculture conditions (medium is replenished daily). Each larva was individually checked under the microscope during a period of 48 hours for the following signs of toxicity: decreased or no touch response upon a light touch of the tail, loss of posture, body deformation, edema, changes in heart rate or circulation and death. […] MTC was determined as 100 micromolar (μM) for (+)-fenfluramine and both norfenfluramine enantiomers. A MTC of 50 μM was determined for (−)-fenfluramine.

[12] = in vivo; cited from earlier work
[13] = Table 5 YMT, drug alone 0.1 mg/kg ip
[14] = Table 5 YMT, drug alone 0.3 mg/kg ip
[15] = Table 6 YMT, drug alone 0.1 mg/kg ip
[16] = Table 6 YMT, drug alone 0.3 mg/kg ip
[17] = Table 5 STPA, drug alone 0.1 mg/kg ip
[18] = Table 5 STPA, drug alone 0.3 mg/kg ip
[19] = Table 6 STPA, drug alone 0.1 mg/kg ip
[20] = Table 6 STPA, drug alone 0.3 mg/kg ip

CCNC(C)Cc1cccc(C(F)(F)F)c1 (racemic) [Fenfluramine, (RS)—N-ethyl-1-[3-(trifluoromethyl)phenyl]propan-2-amine]
number of mice having seizures and duration of seizures ([1]; 20 and 5 mg/kg (FIG. 9)): dose-dependent decrease | seizures in the mouse 6-Hz model ([1]; Mann-Whitney p<0.05 vs. VHC): significantly reduced seizures | period of post-seizure aggression ([1]; vehicle mice displayed it): did not | protection ([2]; 0.5 hours, 3 mg/kg ip): 0% | protection ([2]; 0.5 hours, 10 mg/kg ip): 0% | protection ([2]; 0.5 hours, 30 mg/kg ip): 100% | protection ([2]; 2.0 hours, 3 mg/kg ip): 75% | protection ([2]; 2.0 hours, 10 mg/kg ip): 50% | protection ([2]; 2.0 hours, 30 mg/kg ip): 100% | protection, time course at last time point ([2]; 4 hours post dosing): 100% protection at 4 hours post dosing | ED50 ([2]; Mus musculus, MES, Probit regression, 95% CI 1.4 to 5.1 mg/kg): 2.9 mg/kg | anticonvulsant effect in the MES model ([2]; acute administration): substantial anticonvulsant effect | protection ([3]; 4 hours): no protection | ED50 ([3]; Mus musculus, 6 Hz 44 mA, 95% CI 31.9 to 66.7 mg/kg): 47 mg/kg | activity in a model of focal seizures that secondarily generalize ([3]; mouse, in vivo): some activity | mice died ([4]; 90 mg/kg): 2 of 8 | mice died ([4]; 120 mg/kg): 6 of 8 | anticonvulsant activity ([4]; all doses tested): Minimal anticonvulsant activity at all doses tested | Impairment ([5]; 6 Hz 44 mA section, 30 mg/kg at 0.25, 0.50, 1.00 and 2.00 hours): Some impairment found at a dose of 30 mg/kg at timepoints of 0.25, 0.50, 1.00, and | Impairment ([5]; 6 Hz 44 mA section, 4 hours): no impairment | Impairment ([5]; at doses used in the MES model): No impairment on rotarod at doses used in this model | TD50 ([5]; male, CF-1, mouse, in vivo, intraperitoneal, reported under 6 Hz 44 mA, 95% CI 25.3 to 53.0): 34.6 mg/kg | PP (%) ([6]; Table 2 Y-Maze, drug alone 0.1 mg/kg IP): 1.3 ± 7.9% | PP (%) ([6]; Table 2 Y-Maze, drug alone 0.3 mg/kg IP): 37.9 ± 9.4% | PP (%) ([6]; Table 2 Y-Maze, drug alone 1 mg/kg IP): 59.8 ± 6.1 ^2% | PP (%) [6, 13]: 4.4 ± 7.7% | PP (%) [6, 14]: 33.6 ± 5.7^2% | PP (%) [6, 15]: -9.81 ± 7.6^ % | PP (%) [6, 16]: 26.6 ± 9.8 ^2% | PP (%) ([7]; Table 2 StepThrough/Passive Avoidance, drug alone 0.1 mg/kg IP): 11.0 ± 11.6% | PP (%) ([7]; Table 2 StepThrough/Passive Avoidance, drug alone 0.3 mg/kg IP): 55.7 ± 10.5% | PP (%) ([7]; Table 2 StepThrough/Passive Avoidance, drug alone 1 mg/kg IP): 40.8 ± 13.0 ^4% | PP (%) [7, 17]: 11.2 + 12.0% | PP (%) [7, 18]: 65.5 ± 12.1^5% | PP (%) [7, 19]: 16.8 ± 14.2% | PP (%) [7, 20]: 60.1 ± 13.9 ^5% | behavior in vivo at S1R [8]: behaved in vivo as S1R positive modulators

CCN[C@@H](C)Cc1cccc(C(F)(F)F)c1 [(+)-Fenfluramine, (2S)-N-ethyl-1-[3-(trifluoromethyl)phenyl]propan-2-amine]
Conclusions ([9]; Table 1, locomotor and LFP assays): (+)-FFA is more effective than racemic FFA | antiseizure activity in the zebrafish locomotor assay ([9]; scn1Lab−/− mutants): more efficacious than (−)-fenfluramine | reduction in seizure behavior ([9]; scn1Lab−/− mutants, fixed concentration, FIG. 3): 84% | potency in treating symptoms of epilepsy compared to levofenfluramine ([9]; zebrafish, in vivo): approximately twice | anti-epileptiform activity (frequency and cumulative duration of epileptiform events over 10 minutes) ([10]; 50 micromolar, FIGS. 4 and 5): comparable | LFP Assay ([10]; Table 1, 25, 59 and 100 μM, oral via embryo medium): Most effective in reducing spikes; also recorded: Normal dose-response; higher | maximum tolerated concentration (MTC) [11]: 100 µM | PP (%) ([6]; Table 3 Y-Maze, drug alone 0.1 mg/kg IP): 1.3 ± 7.9% | PP (%) ([6]; Table 3 Y-Maze, drug alone 0.3 mg/kg IP): 37.9 ± 9.4 ^2% | PP (%) [6, 13]: 8.68 ± 8.7% | PP (%) [6, 14]: 40.2 ± 11.3^3% | PP (%) [6, 15]: 0.4 ± 11.5% | PP (%) [6, 16]: 46.7 ± 8.9 ^3% | PP (%) ([7]; Table 3 StepThrough/PassiveAvoidance, drug alone 0.1 mg/kg IP): 9.0 ± 15.8% | PP (%) ([7]; Table 3 StepThrough/PassiveAvoidance, drug alone 0.3 mg/kg IP): 24.8 ± 14.9 ^4% | PP (%) [7, 17]: 11.6 ± 13.6% | PP (%) [7, 18]: 35.2 ± 14.2^6% | PP (%) [7, 19]: 15.6 ± 17.3% | PP (%) [7, 20]: 31.9 ± 16.3 ^6% | behavior in vivo at S1R [8]: behaved in vivo as S1R positive modulators | mean elimination half-life [12]: 19 h

Source: patent publication US20210401776A1, “METHOD OF TREATING […] SYNDROMES USING FENFLURAMINE ENANTIOMERS” (ZOGENIX INTERNATIONAL LIMITED, priority 2018, published 2021)
